Several values for one entry are separate records, joined by “and”; a condition that tells them apart may be missing. Equal values may be shown once. Toxic doses and inconclusive results are not listed.
Tested on: BDF1 mice, P1081 chloroleukemia ip, survival T/C
Experiment: NCI In Vivo Anticancer Drug Screen. Data for tumor model P1081 Chloroleukemia (intraperitoneal) in B6D2F1 (BDF1) mice
Conditions: endpoint: mean survival time, higher = longer survival
Protocol: The antitumor activity of compounds was measured in mice bearing transplantable tumors. Survival or tumor size were measured and the results are expressed as the measurement made in the treated group (T) divided by the measurement made in the vehicle treated control group (C). The tumor model used in this assay is P1081 Chloroleukemia (intraperitoneal) in B6D2F1 (BDF1) mice

[1] = dose: 6.25 mg/kg/injection, schedule: Q01DX Z (ip), vehicle: carboxymethylcellulose (CMC)
[2] = dose: 50.0 mg/kg/injection, schedule: Q01DX Z (ip), vehicle: carboxymethylcellulose (CMC)
[3] = dose: 37.5 mg/kg/injection, schedule: Q01DX010 (ip), vehicle: saline
[4] = dose: 75.0 mg/kg/injection, schedule: Q01DX010 (ip), vehicle: saline
[5] = dose: 150.0 mg/kg/injection, schedule: Q01DX010 (ip), vehicle: saline
[6] = dose: 100.0 mg/kg/injection, schedule: Q01DX010 (ip), vehicle: saline
[7] = dose: 25.0 mg/kg/injection, schedule: Q01DX010 (ip), vehicle: saline
[8] = dose: 50.0 mg/kg/injection, schedule: Q01DX010 (ip), vehicle: saline
[9] = dose: 12.5 mg/kg/injection, schedule: Q01DX Z (ip), vehicle: carboxymethylcellulose (CMC)
[10] = dose: 25.0 mg/kg/injection, schedule: Q01DX Z (ip), vehicle: carboxymethylcellulose (CMC)

Structure (SMILES): N#CCSc1ncnc2nc[nH]c12
- T/C [1]: 119 % of control
- T/C (dose: 15.0 mg/kg/injection, schedule: Q01DX010 (ip), vehicle: saline): 110 % of control
- T/C (dose: 30.0 mg/kg/injection, schedule: Q01DX010 (ip), vehicle: saline): 105 % of control and 95 % of control
- T/C [2]: 101 % of control
- T/C (dose: 60.0 mg/kg/injection, schedule: Q01DX010 (ip), vehicle: saline): 110 % of control

Structure (SMILES): CC(=O)O[C@]1(C(C)=O)CC[C@H]2[C@@H]3C[C@H](C)C4=CC(=O)C=C[C@]4(C)[C@@]3(F)[C@@H](O)C[C@@]21C
- T/C (dose: 2.5 mg/kg/injection, schedule: Q01DX Z (sc), vehicle: steriod suspending solution): 100 % of control
- T/C (dose: 5.0 mg/kg/injection, schedule: Q01DX Z (sc), vehicle: steriod suspending solution): 108 % of control
- T/C (dose: 10.0 mg/kg/injection, schedule: Q01DX Z (sc), vehicle: steriod suspending solution): 107 % of control
- T/C (dose: 12.5 mg/kg/injection, schedule: Q01DX010 (sc), vehicle: steriod suspending solution): 105 % of control and 100 % of control
- T/C (dose: 20.0 mg/kg/injection, schedule: Q01DX Z (sc), vehicle: steriod suspending solution): 108 % of control
- T/C (dose: 25.0 mg/kg/injection, schedule: Q01DX010 (sc), vehicle: steriod suspending solution): 100 % of control
- T/C (dose: 40.0 mg/kg/injection, schedule: Q01DX Z (sc), vehicle: steriod suspending solution): 116 % of control
- T/C (dose: 50.0 mg/kg/injection, schedule: Q01DX010 (sc), vehicle: steriod suspending solution): 90 % of control and 95 % of control
- T/C (dose: 100.0 mg/kg/injection, schedule: Q01DX010 (sc), vehicle: steriod suspending solution): 90 % of control and 100 % of control
- T/C (dose: 160.0 mg/kg/injection, schedule: Q01DX Z (sc), vehicle: steriod suspending solution): 105 % of control
- T/C (dose: 320.0 mg/kg/injection, schedule: Q01DX Z (sc), vehicle: steriod suspending solution): 93 % of control

Structure (SMILES): O=C(C[N+]12CN3CN(CN(C3)C1)C2)c1ccc(Cl)cc1
- T/C [3]: 113 % of control and 98 % of control
- T/C [4]: 107 % of control and 112 % of control
- T/C [5]: 112 % of control and 118 % of control
- T/C (dose: 300.0 mg/kg/injection, schedule: Q01DX010 (ip), vehicle: saline): 110 % of control and 114 % of control

Structure (SMILES): COc1cc2c(cc1I)-c1c(cc(OC)c(OC)c1OC)CC[C@@H]2NC(C)=O
- T/C (dose: 45.0 mg/kg/injection, schedule: Q01DX010 (ip), vehicle: saline): 120 % of control
- T/C (dose: 67.0 mg/kg/injection, schedule: Q01DX010 (ip), vehicle: saline): 115 % of control
- T/C [6]: 115 % of control
- T/C [5]: 111 % of control and 115 % of control
- T/C (dose: 225.0 mg/kg/injection, schedule: Q01DX010 (ip), vehicle: saline): 100 % of control

Structure (SMILES): CC1CCOS(=O)O1 (stereo not drawn)
- T/C (dose: 2.5 mg/kg/injection, schedule: Q01DX Z (ip), vehicle: carboxymethylcellulose (CMC)): 101 % of control
- T/C (dose: 5.0 mg/kg/injection, schedule: Q01DX Z (ip), vehicle: carboxymethylcellulose (CMC)): 115 % of control
- T/C (dose: 10.0 mg/kg/injection, schedule: Q01DX010 (ip), vehicle: saline): 115 % of control
- T/C (dose: 10.0 mg/kg/injection, schedule: Q01DX Z (ip), vehicle: carboxymethylcellulose (CMC)): 86 % of control
- T/C (dose: 20.0 mg/kg/injection, schedule: Q01DX010 (ip), vehicle: saline): 110 % of control
- T/C (dose: 40.0 mg/kg/injection, schedule: Q01DX010 (ip), vehicle: saline): 95 % of control

Structure (SMILES): CC(=O)NC1=C(N2CC2)C(=O)C(NC(C)=O)=C(N2CC2)C1=O
- T/C (dose: 250.0 micrograms/kg/injection, schedule: Q01DX010 (ip), vehicle: saline): 188 % of control and 210 % of control
- T/C (dose: 500.0 micrograms/kg/injection, schedule: Q01DX010 (ip), vehicle: saline): 255 % of control and 270 % of control
- T/C (dose: 1000.0 micrograms/kg/injection, schedule: Q01DX010 (ip), vehicle: saline): 115 % of control

Structure (SMILES): CSCS(=O)C[C@H](CO)NC(=O)/C=C/c1c(C)[nH]c(=O)[nH]c1=O (stereo partly drawn)
- T/C (dose: 0.06 mg/kg/injection, schedule: Q01DX Z (ip), vehicle: saline): 92 % of control
- T/C (dose: 0.12 mg/kg/injection, schedule: Q01DX Z (ip), vehicle: saline): 93 % of control
- T/C (dose: 0.25 mg/kg/injection, schedule: Q01DX Z (ip), vehicle: saline): 107 % of control and 97 % of control
- T/C (dose: 0.5 mg/kg/injection, schedule: Q01DX Z (ip), vehicle: saline): 92 % of control and 102 % of control
- T/C (dose: 1.0 mg/kg/injection, schedule: Q01DX Z (ip), vehicle: saline): 90 % of control

Structure (SMILES): CS(=O)(=O)OCC(O)C(O)C(O)C(O)COS(C)(=O)=O (stereo not drawn)
- T/C [7]: 110 % of control
- T/C [8]: 110 % of control and 100 % of control
- T/C [6]: 110 % of control and 105 % of control
- T/C (dose: 200.0 mg/kg/injection, schedule: Q01DX010 (ip), vehicle: saline): 111 % of control and 120 % of control
- T/C (dose: 400.0 mg/kg/injection, schedule: Q01DX010 (ip), vehicle: saline): 111 % of control

Structure (SMILES): CS(=O)(=O)OCCCl
- T/C [9]: 98 % of control
- T/C (dose: 18.8 mg/kg/injection, schedule: Q01DX010 (ip), vehicle: saline): 105 % of control and 95 % of control
- T/C [10]: 110 % of control
- T/C [3]: 110 % of control and 100 % of control
- T/C [2]: 98 % of control
- T/C [4]: 105 % of control and 90 % of control
- T/C (dose: 100.0 mg/kg/injection, schedule: Q01DX Z (ip), vehicle: carboxymethylcellulose (CMC)): 94 % of control
- T/C (dose: 2000.0 mg/kg/injection, schedule: Q01DX Z (ip), vehicle: carboxymethylcellulose (CMC)): 103 % of control

Structure (SMILES): Clc1ccc(C(c2ccccc2Cl)C(Cl)Cl)cc1 (stereo not drawn)
- T/C (dose: 0.8 mg/kg/injection, schedule: Q01DX Z (sc), vehicle: steriod suspending solution): 110 % of control
- T/C (dose: 3.1 mg/kg/injection, schedule: Q01DX Z (sc), vehicle: steriod suspending solution): 117 % of control
- T/C (dose: 6.25 mg/kg/injection, schedule: Q01DX Z (sc), vehicle: steriod suspending solution): 101 % of control
- T/C (dose: 12.5 mg/kg/injection, schedule: Q01DX Z (sc), vehicle: steriod suspending solution): 100 % of control
- T/C (dose: 25.0 mg/kg/injection, schedule: Q01DX Z (sc), vehicle: steriod suspending solution): 93 % of control and 95 % of control
- T/C (dose: 50.0 mg/kg/injection, schedule: Q01DX Z (sc), vehicle: steriod suspending solution): 93 % of control
- T/C (dose: 100.0 mg/kg/injection, schedule: Q01DX Z (sc), vehicle: steriod suspending solution): 87 % of control

Structure (SMILES): CC[C@]1(O)C[C@H]2CN(CCc3c([nH]c4ccccc34)[C@@](C(=O)OC)(c3cc4c(cc3OC)N(C=O)[C@H]3[C@@](O)(C(=O)OC)[C@H](OC(C)=O)[C@]5(CC)C=CCN6CC[C@]43[C@@H]65)C2)C1
- T/C (dose: 0.06 mg/kg/injection, schedule: Q01DX Z (ip), vehicle: water): 112 % of control
- T/C (dose: 1.0 mg/kg/injection, schedule: Q01DX Z (ip), vehicle: water): 118 % of control

Structure (SMILES): N=C(N)c1ccc(Nc2ccc(C(=N)N)cc2)cc1
- T/C (dose: 0.8 mg/kg/injection, schedule: Q01DX Z (ip), vehicle: methylcellulose (MC)): 95 % of control
- T/C (dose: 1.6 mg/kg/injection, schedule: Q01DX Z (ip), vehicle: methylcellulose (MC)): 107 % of control
- T/C (dose: 3.0 mg/kg/injection, schedule: Q01DX010 (ip), vehicle: saline): 111 % of control
- T/C (dose: 3.1 mg/kg/injection, schedule: Q01DX Z (ip), vehicle: methylcellulose (MC)): 96 % of control and 103 % of control
- T/C (dose: 6.0 mg/kg/injection, schedule: Q01DX010 (ip), vehicle: saline): 100 % of control
- T/C (dose: 6.3 mg/kg/injection, schedule: Q01DX Z (ip), vehicle: methylcellulose (MC)): 99 % of control
- T/C (dose: 12.0 mg/kg/injection, schedule: Q01DX010 (ip), vehicle: saline): 100 % of control
- T/C (dose: 12.5 mg/kg/injection, schedule: Q01DX Z (ip), vehicle: methylcellulose (MC)): 98 % of control

Structure (SMILES): CN(N=O)C(=O)NC(C=O)C(O)C(O)C(O)CO (stereo not drawn)
- T/C [1]: 93 % of control
- T/C [9]: 102 % of control
- T/C [10]: 112 % of control
- T/C [2]: 100 % of control
- T/C (dose: 50.0 mg/kg/injection, schedule: Q01DX Z (ip), vehicle: saline): 115 % of control
- T/C (dose: 100.0 mg/kg/injection, schedule: Q01DX Z (ip), vehicle: saline): 107 % of control
- T/C (dose: 200.0 mg/kg/injection, schedule: Q01DX Z (ip), vehicle: saline): 88 % of control

Structure (SMILES): CS(=O)(=O)OCCCCOS(C)(=O)=O
- T/C (dose: 0.78 mg/kg/injection, schedule: Q01DX Z (ip), vehicle: methylcellulose (MC)): 89 % of control
- T/C (dose: 6.25 mg/kg/injection, schedule: Q01DX010 (ip), vehicle: saline): 110 % of control
- T/C (dose: 12.5 mg/kg/injection, schedule: Q01DX010 (ip), vehicle: saline): 86 % of control and 100 % of control
- T/C [7]: 86 % of control and 100 % of control
- T/C (dose: 25.0 mg/kg/injection, schedule: Q01DX Z (ip), vehicle: methylcellulose (MC)): 95 % of control
- T/C [8]: 90 % of control and 100 % of control
- T/C (dose: 50.0 mg/kg/injection, schedule: Q01DX Z (ip), vehicle: methylcellulose (MC)): 92 % of control
